In paper PMC9356275, “A quantitative high-throughput screen identifies compounds that lower expression of the SCA2-and ALS-associated gene ATXN2” (The Journal of Biological Chemistry, 2022):
Structures can show the parent of a compound that is named as a salt. Where two headings read alike, the source gives them in different places.

What was measured:
Assay type in all cases: cell-based, human
ATXN2-luc [1] = experiment: MSSR hit retest: ATXN2-luc luciferase assay, average of H2 and S1 cells (1 and 10 uM); conditions: Homo sapiens; for activity at 1 µM: read-out: H2&S1 ave luc 1uM; for activity at 10 µM: head line r3 10uM; for activity at 10 µM / activity: read-out: H2&S1 ave luc 10uM
Description: (§1) Supplement mmc2.xlsx, sheet "43 annotated compounds"

H2 and S1 cells = experiment: Paired MTT viability assay, average of H2 and S1 cells (1 and 10 uM); conditions: Homo sapiens
Description: as §1

ATXN2-luc [2] = experiment: MSSR pilot screen: ATXN2-luc luciferase assay (Bright-Glo) in H2 cells, single 10 μM dose; conditions: for SD from mean (ATXN2-luc, Z-score): H2 cells, single dose (title: 10 μM compound), overnight; for ¦Score/1SD¦: absolute score divided by 1SD (0.891 or 0.9)
[3] = 1 uM compound, average of H2 and S1 cells
[4] = 1 uM compound, read-out: H2&S1 ave MTT 1uM
[5] = 10 uM compound, read-out: H2&S1 ave MTT 10uM
[6] = pilot screen at 10 µM compound, H2 cells expressing ATXN2-luc
[7] = read-out: H2&S1 ave MTT 1uM, 1 uM compound
[8] = read-out: H2&S1 ave MTT 10uM, 10 uM compound
[9] = pilot screen, H2 cells expressing ATXN2-luc, single dose printed as 10 μM compound

SMILES	activity at 1 µM (ATXN2-luc [1]; [3]) [%]	activity at 10 µM (ATXN2-luc [1]; average of H2 and S1 cells) [%]	viability at 1 µM (H2 and S1 cells; [4]) [%]	viability at 10 µM (H2 and S1 cells; [5]) [%]	SD from mean (ATXN2-luc, Z-score) (ATXN2-luc [2]) [SD]	SD from mean (pilot screen) (ATXN2-luc [2]; pilot screen) [SD]	SD from mean (pilot screen) (ATXN2-luc [2]; [6])	¦Score/1SD¦ (ATXN2-luc [2]; pilot screen)	activity at 1 µM (ATXN2-luc [1]) [%]	activity (ATXN2-luc [1]) [%]	viability at 1 µM (H2 and S1 cells; [7]) [%]	viability at 10 µM (H2 and S1 cells; [8]) [%]	SD from mean (pilot screen) (ATXN2-luc [2]; [9])
CC[C@H]1CN2CCc3cc(OC)c(OC)cc3[C@@H]2C[C@@H]1C[C@H]1NCCc2cc(OC)c(OC)cc21 [Emetine dihydrochloride]	18	19	59.7	58.1	-4.840	-4.840	-4.840	5.43					
CC(=O)O[C@H]1CC[C@@]2(C)[C@H](CC[C@@H]3[C@@H]2CC[C@]2(C)[C@@H](C4=CC(=O)OC4)[C@@H](OC(C)=O)C[C@]32O)C1 [GITOXIGENIN DIACETATE]					-4.261	-4.261	-4.261	4.73	27	21	39.7	40.3	
C[C@H]1O[C@@H](O[C@H]2[C@@H](O)C[C@H](O[C@H]3[C@@H](O)C[C@H](O[C@H]4CC[C@@]5(C)[C@H](CC[C@@H]6[C@@H]5CC[C@]5(C)[C@@H](C7=CC(=O)OC7)[C@@H](O)C[C@]65O)C4)O[C@@H]3C)O[C@@H]2C)C[C@H](O)[C@@H]1O [GITOXIN]	21	12	28.7	40.3	-4.086	-4.086	-4.086	4.54					
CO[C@H]1[C@H](O)[C@H](O[C@H]2CC[C@@]3(C)[C@H](CC[C@@H]4[C@@H]3CC[C@]3(C)[C@@H](C5=CC(=O)OC5)CC[C@]43O)C2)O[C@@H](C)[C@@H]1O [NERIIFOLIN]					-3.045	-3.045		3.38	17	17	30.8	36.1	-3.045
COC(=O)C1=C(C)NC(C)=C(C(=O)OCCN(C)Cc2ccccc2)C1c1cccc([N+](=O)[O-])c1 (stereo not drawn) [NICARDIPINE]	112	61	140	87	-2.782	-2.782		3.12					-2.782
CO[C@H]1C[C@H](O[C@H]2CC[C@]3(C)[C@H]4CC[C@]5(C)[C@@H](C6=CC(=O)OC6)CC[C@]5(O)[C@@H]4CC[C@]3(O)C2)O[C@H](C)[C@H]1O [PERIPLOCYMARIN]					-2.759	-2.759		3.07	75	17	58.7	37.1	-2.759
CO[C@H]1[C@H](O)[C@H](O[C@H]2CC[C@@]3(C=O)[C@H](CC[C@@H]4[C@@H]3CC[C@]3(C)[C@@H](C5=CC(=O)OC5)CC[C@]43O)C2)O[C@@H](C)[C@@H]1O [PERUVOSIDE]					-4.038	-4.038	-4.038	4.49	15	12	47.5	60	
CC(=O)Oc1cccc(O)c1 [RESORCINOL MONOACETATE]	120	4.6	115	19.9	-6.242	-6.242	-6.242	6.94					
C[C@]12CC[C@H](O)C[C@H]1CC[C@@H]1[C@@H]2[C@H](O)C[C@]2(C)[C@@H](C3=CC(=O)OC3)CC[C@]12O [SARMENTOGENIN]					-3.539	-3.539		3.93	53	24	45.8	41.2	-3.539
